In publication PMC2791885 (Journal of nuclear medicine : official publication, Society …, 2009):

Assays:
PDE4 = assay: PET compartmental modeling of brain and plasma data
[1] = ultrafiltration, 5 control animals; cited from earlier work
[2] = transient equilibrium, range over scans

SMILES: COc1ccc([C@@H]2CNC(=O)C2)cc1OC1CCCC1 [(R)-rolipram]
- concentration of free radioligand calculated with Equation 2 (PDE4; baseline scans): 0.08 to 0.17 nM
- concentration of free radioligand calculated with Equation 2 (PDE4; partially blocked scans): 0.29 to 3.00 nM
- calculated concentration of free ligand in brain (PDE4; [2]): 0.07 to 5.68 nM
- calculated concentration of specifically bound ligand in brain (PDE4; [2]): 3.63 to 88.3 nM
- plasma-free fraction (fP) [1]: 30.5% ± 3.1
